The values below come from US7888383B2, “Organic compounds” (Novartis AG, priority 2005, dated 2011).

The target of one assay is T1, human CRTh2 (Homo sapiens, UniProt Q9Y5Y4).
T1 construct: expressed in transfected cells; host or cells: CHO.K1 (Chinese Hamster Ovary) cells expressing human CRTh2; membrane preparation
T1 sequence (Q9Y5Y4 1-395): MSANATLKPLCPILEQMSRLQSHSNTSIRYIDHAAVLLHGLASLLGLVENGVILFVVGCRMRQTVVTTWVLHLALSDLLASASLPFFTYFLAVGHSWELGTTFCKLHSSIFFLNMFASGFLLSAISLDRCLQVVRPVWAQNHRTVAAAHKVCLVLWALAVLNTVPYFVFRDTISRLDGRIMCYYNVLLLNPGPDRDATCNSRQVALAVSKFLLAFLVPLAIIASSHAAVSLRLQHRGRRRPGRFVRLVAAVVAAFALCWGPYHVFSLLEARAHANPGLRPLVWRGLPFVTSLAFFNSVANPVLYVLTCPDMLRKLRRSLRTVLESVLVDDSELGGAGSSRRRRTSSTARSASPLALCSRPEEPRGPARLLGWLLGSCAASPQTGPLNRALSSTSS
The assay can be described thus: CRTh2 [3H]-PGD2 binding assay (filtration protocol; called SPA binding assay). Particulars: competition with [3H]-PGD2 (2.5 nM), CHO.K1-CRTh2 membranes. As for the experimental part: Filtration Binding Assay Protocol
The binding of CRTh2 modulators is determined using membranes prepared from human CRTh2-expressing Chinese Hamster Ovary cells (CHO.K1-CRTh2). To produce cell membranes CHO.K1-CRTh2 cells cultured in roller bottles are harvested using cell dissociation buffer (Invitrogen). The cells are pelleted by centrifugation (167 g, 5 min). The cell pellet is incubated in hypotonic buffer (15 mM Tris-OH, 2 mM MgCl2, 0.3 mM EDTA, 1 mM EGTA, 1× Complete™ tablet) at 4° C. for 30 min. At 4° C. cells are homogenized using a Polytron® (IKA Ultra Turrax T25) for 5 bursts of 1 second. The homogenate is centrifuged (Beckman Optima™ TL Ultracentrifuge, 48000 g, 30 min at 4° C.). The supernatant is discarded and the membrane pellet resuspended in homogenisation buffer (75 mM Tris-OH, 12.5 mM MgCl2, 0.3 mM EDTA, 1 mM EGTA, 250 mM Sucrose, 1× Complete™ tablet. Membrane preparations are aliquoted and stored at […]. The protein content is estimated using Bradford Protein Assay Dye (Bio Rad).
The binding of [^3H]-PGD2 (157 Ci/mmol) to CHO.K1-CRTh2 membranes is determined in the absence (total binding) and presence (non-specific binding) of unlabelled PGD2 (1 μM). Subtraction of the cpm (counts per minute) of [^3H]-PGD2 binding in presence of excess unlabelled PGD2 from that observed in the absence of excess unlabelled PGD2 is defined as specific binding. Active CRTh2 modulators are able to compete with [^3H]-PGD2 for binding to the CRTh2 receptor and are identified in a decrease in the number of cpm bound. […]
The plates are incubated at room temperature on a shaker for 1 hour, and then harvested (Tomtec Harvester 9600) onto GF/C filter plates using wash buffer (10 mM HEPES-KOH, pH 7.4). […] Plates are then counted using a Packard Top Count instrument, Plates are then read on the Packard Topcount with the 3H Scintillation program (1 min per well).
Ki (dissocation constant for the inhibition) values for the CRTh2 modulators are reported. Ki values are determined using Sigma Plot™ software, using the Cheng-Prussoff equation. […]

For assay [1], the target named is T2, CRTh2 receptor in CHO.K1-CRTh2 cells (Homo sapiens, UniProt Q9Y5Y4).
T2 construct: expressed in transfected cells; host or cells: CHO.K1-CRTh2 cells (whole cells)
T2 sequence (Q9Y5Y4 1-395): T1 sequence (Q9Y5Y4 1-395)
The assay is described as follows: CRTH2 cAMP functional assay. It counts as cell-based. To be noted: inhibition of PGD2-mediated attenuation of forskolin-induced cAMP accumulation in CHO.K1-CRTh2 cells. The protocol:
Ki (dissocation constant for the inhibition) values for the CRTh2 modulators are reported. Ki values are determined using Sigma Plot™ software, using the Cheng-Prussoff equation. Ki=IC50/1+[S]/Kd where S is the concentration of radioligand and Kd is the dissociation constant. CRTH2 cAMP Functional Assay Protocol
This assay is conducted in CHO.K1-CRTh2 cells. cAMP is generated in the cell by stimulating cells with 5 μM forskolin, an adenylate cyclase activator. PGD2 is added to activate the CRTh2 receptor which results in the attenuation of the forskolin-induced cAMP accumulation. Potential CRTh2 antagonists are tested for their ability to inhibit the PGD2-mediated attenuation of the forskolin-induced cAMP accumulation in CHO.K1-CRTh2 cells.
For each concentration value on the dose-response curve, test compounds are prepared in assay stimulation buffer (HBSS, 5 mM HEPES, 10 μM IBMX±0.1% human serum albumin) containing DMSO (3% vol/vol) and 5 μL/well is added to an assay plate (384 well white optiplate).
CHO.K1-CRTh2 cultured in tissue culture flasks are washed with PBS and harvested with dissociation buffer. Cells are washed with PBS and resuspended in stimulation buffer to a concentration of 0.4×10^6/mL and added to the assay plate (10 μL/well).
The assay plate is incubated at room temperature on a shaker for 15 minutes.
A mix of agonist (10 nM Prostaglandin D2) and 5 μM forskolin is prepared in assay stimulation buffer and added to the assay plate (5 μL/well).
In addition, a cAMP standard is serially diluted in assay stimulation buffer and added to separate empty wells on the assay plate (20 μL/well). The cAMP standard allows for the quantification of cAMP generated in CHO.K1-CRTH2 cells.
The assay plate is incubated at room temperature on a shaker for 60 minutes. […]
The assay plate is sealed with Topseal-S™ and incubated in the dark at room temperature on a shaker for 45 minutes. The plate is then counted using a Packard Fusion™ instrument. […]
In general terms: Changes in cAMP serve as a functional read-out for many G protein-coupled receptors.

A word on the Ki: it is the dissociation constant of the complex between target and ligand, obtained from inhibition or displacement. Low values mean a stronger hold on the target, high ones a looser hold on the target. As a reminder, the IC50 is the concentration that inhibits the measured activity by half. Read a low IC50 as greater potency in that assay. For `Cc1c(CC(=O)O)c2cc(F)ccc2n1Cc1ccc(S(C)(=O)=O)cc1C(F)(F)F` [Example 2, [5-fluoro-(4-methanesulfonyl-2-trifluoromethyl-benzyl)-2-methyl-1H-indol-3-yl]-acetic acid], the inhibition constant Ki at human CRTh2 was determined as 8 nM. In assay [1], the half-inhibitory concentration (IC50) came out at 73 nM.
Compound `Cc1c(CC(=O)O)c2cc(F)ccc2n1Cc1ccc(S(=O)(=O)N(C)C2CCCCC2)cc1` [Example 4, {1-[4-(Cyclohexyl-methyl-sulfamoyl)-benzyl]-5-fluoro-2-methyl-1H-indol-3-yl}-acetic acid] gave a Ki on human CRTh2 of 52 nM. In addition, half-maximal inhibition in assay [1] (IC50) required 33 nM.
The corresponding values for `Cc1c(CC(=O)O)c2cc(F)ccc2n1Cc1ccc(S(=O)(=O)N2CCCC2)cc1` [Example 5, {5-Fluoro-2-methyl-1-[4-(pyrrolidine-1-sulfonyl)-benzyl]-1H-indol-3-yl}-acetic acid] are 36 nM and 99 nM.
